Patent US12263248B2, “Compounds and compositions for intracellular delivery of therapeutic agents” (ModernaTX, Inc., priority 2018, dated 2025)

What was measured:
luciferase (Luc) mRNA [1] = assay: Luc expression, whole body bioluminescence after intravenous administration to mice; assay type: in vivo; conditions: for Total Flux 3 hours / Total Flux 6 hours / Total Flux 24 hours: mice, i.v., 0.5 mg/kg, Luc mRNA; for 6 h BLI Lipid/MC3: Table 3E, intravenous
How it was run: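 Luc mRNA nanoparticle formulations given intravenously to mice (n=6) at 0.5 mg/kg; whole-body bioluminescence imaged at 3, 6 and 24 h. CD-1 mice received IP D-luciferin (200 μL of 15 mg/mL) 15 min before imaging; total flux quantified by region of interest.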

[2] = Apparent (surface) pKa of the LNP formulation (TNS assay); assay type: physicochemical; conditions: for pKa: Table 1A
How it was run: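 LNP (0.04 mg/mL mRNA) mixed with TNS reagent in 21 buffers spanning about pH 3-12, in triplicate; fluorescence plotted against pH as sigmoidal curve. Apparent pKa taken as […] curve inflection point; validated in 1× PBS and 20 mM Tris w/8% sucrose.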

luciferase (Luc) mRNA [3] = assay: Luc expression in liver, lung, spleen and femur 6 hours after intravenous administration; assay type: in vivo; conditions: mice, intravenous, 0.5 mpk
How it was run: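 LNP-formulated mRNA given IV to mice (n=3) at 0.5 mpk; at 6 h, bioluminescence imaged ex vivo 15 min after IP D-luciferin (15 mg/mL, 200 μL), organs imaged within 25 min. Values are total flux by region of interest.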

[4] = Particle size and polydispersity index of nanoparticle compositions (Zetasizer Nano ZS); assay type: physicochemical
How it was run: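 Nanoparticle compositions are diluted in 1×PBS, then size and polydispersity index are read on a Zetasizer Nano ZS instrument.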

luciferase (Luc) mRNA [5] = assay: Luc expression (total flux) after intramuscular administration; assay type: in vivo, mice; conditions: 6 hours after intramuscular administration
Method: In order to monitor how effectively various nanoparticle compositions deliver therapeutic and/or prophylactics to targeted cells, different nanoparticle compositions including a particular therapeutic and/or prophylactic (for example, a modified or naturally occurring RNA such as an mRNA) are prepared and administered to rodent populations. Mice are intravenously, intramuscularly, intraarterially, or intratumorally administered a single dose including a nanoparticle composition with a formulation such as those provided in Example 3. In some instances, mice may be made to inhale doses. Dose sizes may range from 0.001 mg/kg to 10 mg/kg, where 10 mg/kg describes a dose including 10 mg of a therapeutic and/or prophylactic in a nanoparticle composition for each 1 kg of body mass of the mouse. A control composition including PBS may also be employed.
Sample formulations including both modified luciferase (Luc) mRNA and H10 mRNA were prepared and administered intramuscularly and the resulting expression and immunogenicity were evaluated simultaneously. Formulations including compounds according to Formula (I), (IA), (IB), (II), (IIa), (IIb), (IIc), (IId), (IIe), (IIf), (IIg), (III), (VI), (VI-a), (VII), (VIII), (VIIa), (VIIIa), (VIIIb), (VIIb-1), (VIIb-2), (VIIb-3), (VIIc), (VIId), (VIIIc), or (VIIId) were prepared and administered at doses of 0.001 and 0.01 mpk (e.g., doses of 0.0005 mpk of a formulation including Luc mRNA and a formulation including H10 mRNA or doses of 0.005 mpk of a formulation including Luc mRNA and a formulation including H10 mRNA).
Sample formulations including modified luciferase (Luc) mRNA prepared and administered intramuscularly and the resulting expression and immunogenicity were evaluated simultaneously. Formulations including compounds according to Formula (I), (IA), (IB), (II), (IIa), (IIb), (IIc), (IId), (IIe), (IIf), (IIg), (III), (VI), (VI-a), (VII), (VIII), (VIIa), (VIIIa), (VIIIb), (VIIb-1), (VIIb-2), (VIIb-3), (VIIc), (VIId), (VIIIc), or (VIIId) were prepared and administered at dose of and 0.01 mpk.

luciferase mRNA = assay: Luciferase expression after subcutaneous administration to mice; assay type: in vivo, female CD-1 mice; conditions: 0.5 mpk, relative to MC3
Method: The effect of the lipids of the disclosure on protein expression upon subcutaneous administration was studied. Formulations containing lipids of the disclosure and an mRNA expressing luciferase or hEPO were administered subcutaneously to female CD-1 mice at 0.5 mpk. Expression levels were obtained via whole body luminescent imaging (BLI) at 3, 6 and 24 hours after injection and expression levels in liver, spleen and at the injection site were evaluated ex vivo after 24 hours. […] See also Tables 35 and 36, and FIGS. 19 and 27.
Table 35 summarizes the luciferase expression levels using various nanoparticle compositions of the disclosure, and the luciferase expression levels using various nanoparticle compositions of the disclosure as compared to the luciferase expression level using an MC3 formulation after subcutaneous administration, as described above.

[6] = Encapsulation efficiency of RNA (QUANT-IT RIBOGREEN RNA assay); assay type: physicochemical; conditions: for EE (%): Table 1A
How it was run: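 RiboGreen fluorescence (ex ~480, em ~520 nm) compared between intact samples and Triton X-100-lysed samples after 15 min at 37 °C in TE buffer, pH 7.5. Percent free RNA is the blank-corrected intact/disrupted ratio.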

[7] = Lipid clearance: lipid level in mouse liver tissue (LC-MS/MS); assay type: in vivo; conditions: Table 3E, mouse liver
IL-6, IP-10 = assay: Cytokine induction in mice upon intravenous administration; assay type: in vivo; design: Cytokine induction IL-6 / Cytokine induction IP-10: unit not given here; conditions: intravenous, 0.5 mpk, 6 hours
From the text: The introduction of foreign material into a mammalian body induces an innate immune response that promotes cytokine production. Such immune responses to, for example, nanoparticle compositions including therapeutic and/or prophylactics, are undesirable. The induction of certain cytokines is thus measured to evaluate the […] of nanoparticle compositions. The concentrations of various cytokines in mice upon intravenous administration of nanoparticle compositions presented in Table 1A at a dosage of 0.5 mpk was measured at 6 hours. The standard MC3 formulation and a PBS control were also tested. As is evident in Table 7, IL-6 induction was highest for compositions including Compounds 1, 3, 9, 19, and 26, while IP-10 induction was highest for compositions including Compounds 3, 4, 7, 20, and 26. IL-6 induction was lowest for compositions including Compounds 4, 11, 12, and 28. IP-10 induction was lowest for compositions including Compounds 10, 11, 12, 13, 15, 17, and 18.

[8] = Table 1A, lipid:DSPC:cholesterol:PEG-DMG 50:10:38.5:1.5 mol %
[9] = Table 1E, compositions for subcutaneous administration

| pKa [2] | PDI ([4]; Table 1A) | Size (nm) [4, 8] [nm] | EE (%) [6] [%] | % Remaining dose at 6 h [7] [%] | % Remaining dose at 24 h [7] [%] | SMILES | 6 h BLI Lipid/MC3 (luciferase (Luc) mRNA [1]) | also measured |
| --- | --- | --- | --- | --- | --- | --- | --- | --- |
| 6.92 | 0.13 | 77.2 | 98.4 |  |  | CCCCCCCCCOC(=O)CCCCCCCN(CCCCCCCC(=O)OC(CCCCCCCC)CCCCCCCC)CC(O)CO (stereo not drawn) [Compound 69, Heptadecan-9-yl 8-((2,3-dihydroxypropyl)(8-(nonyloxy)-8-oxooctyl)amino)octanoate] |  | Total Flux 3 hours (luciferase (Luc) mRNA [1]): 3.38E+09; Total Flux 6 hours (luciferase (Luc) mRNA [1]): 7.95E+09; Total Flux 24 hours (luciferase (Luc) mRNA [1]): 1.15E+08; App. pKa ([2]; Table 3F): 6.95; Total Flux Liver (luciferase (Luc) mRNA [3]): 2.24E+08; Total Flux Lung (luciferase (Luc) mRNA [3]): 7.34E+05; Total Flux Spleen (luciferase (Luc) mRNA [3]): 2.54E+06; PDI [4, 9]: 0.09; Size (nm) [4, 9]: 71.8 nm; Total flux (p/s) 0.01 mpk Dose (luciferase (Luc) mRNA [5]; Table 5B, 0.01 mpk): 8.83E+06 p/s; Novel lipid/MC3 expression ratio, 6 hr. time point, s.c. Luc 0.5 mpk (luciferase mRNA): 0.14; % EE [6, 9]: 99% |
| 6.54 | 0.24 | 245.3 | 32.3 | 0.076 | 0 | CCCCCCCCCOC(=O)CCCCCCCN(CCO)CCCCCCCC(=O)OC(COCCCCCC)COCCCCCC [Compound 183, 1,3-Bis(hexyloxy)propan-2-yl 8-((2-hydroxyethyl)(8-(nonyloxy)-8-oxooctyl)amino)octanoate] | 0.031 |  |
| 6.08 | 0.09 | 67.6 | 94.3 | 0.203 | 0 | CCCCCCCCC(CCCCCCCC)OC(=O)CCCCCCCN(CCO)C(C)CCCCCCCCOC(=O)CCCCCCC (stereo not drawn) [Compound 161, Heptadecan-9-yl 8-((2-hydroxyethyl)(10-(octanoyloxy)decan-2-yl)amino)octanoate] | 0.12 |  |
| 6.54 | 0.15 | 89.0 | 94.0 | 0.056 | 0 | CCCCCCCCCOC(=O)CCCCCCCN(CCO)CCCCCCCC(=O)OC(CCC1CC1CCCC)CCC1CC1CCCC (stereo not drawn) [Compound 160, 1,5-Bis(2-butylcyclopropyl)pentan-3-yl 8-((2-hydroxyethyl)(8-(nonyloxy)-8-oxooctyl)amino)octanoate] | 0.29 |  |
| 6.08 | 0.14 | 72.7 | 94.1 | 0.283 | 0 | CCCCCCCCC(CCCCCCCC)C(=O)OCCCCCCCN(CCO)C(C)CCCCCCCCOC(=O)CCCCCCC (stereo not drawn) [Compound 162, 7-((2-Hydroxyethyl)(10-(octanoyloxy)decan-2-yl)amino)heptyl 2-octyldecanoate] | 0.28 |  |
| 6.33 | 0.17 | 92.2 | 87.2 | 0.051 | 0 | CCCCCCCOC(=O)CCCCCCCCCN(CCO)CCCCCCCCCC(=O)OC(CCCCCC)CCCCCC [Compound 186, Heptyl 10-((2-hydroxyethyl)(10-oxo-10-(tridecan-7-yloxy)decyl)amino)decanoate] | 1.13 |  |
| 6.48 | 0.14 | 100.5 | 85.0 | 51.0 | 35.5 | CCCCCCCCCC(C)(O)CCCCCCCCN(CCO)CCCCCCCC(=O)OC(CCCCCCCC)CCCCCCCC (stereo not drawn) [Compound 171, Heptadecan-9-yl 8-((9-hydroxy-9-methyloctadecyl)(2-hydroxyethyl)amino)octanoate] | 2.26 |  |
| 6.40 | 0.13 | 77.3 | 95.4 | 17.4 | 3.24 | CCCCCCCCC(CCCCCCCC)OC(=O)CCCCCCCN(CCO)CCCCCCCC(=O)O[C@H](C)CCCCCCCC [Compound 172, (R)-Decan-2-yl 8-((8-(heptadecan-9-yloxy)-8-oxooctyl)(2-hydroxyethyl)amino)octanoate] | 1.72 |  |
| 6.77 | 0.14 | 69.6 | 98.3 | 33.8 | 29.3 | CCCCCCCCCCCOC(=O)CCCCCN(CCO)CCCCCC(=O)OC(CCCCCCCCCC)CCCCCCCCCC [Compound 185, Henicosan-11-yl 6-((2-hydroxyethyl)(6-oxo-6-(undecyloxy)hexyl)amino)hexanoate] | 0.87 |  |

| SMILES | pKa [2] | PDI ([4]; Table 1A) | Size (nm) [4, 8] [nm] | EE (%) [6] [%] | % Remaining dose at 6 h [7] [%] | % Remaining dose at 24 h [7] [%] | 6 h BLI Lipid/MC3 (luciferase (Luc) mRNA [1]) | also measured |
| --- | --- | --- | --- | --- | --- | --- | --- | --- |
| CCCCCCCCCCCCN(CCO)CCCCCCCCCCCC(=O)OC [Compound 137, Methyl 12-(dodecyl(2-hydroxyethyl)amino)dodecanoate] | 7.06 |  |  |  |  |  |  | Total Flux 3 hours (luciferase (Luc) mRNA [1]): 3.77E+05; Total Flux 6 hours (luciferase (Luc) mRNA [1]): 5.02E+05; Total Flux 24 hours (luciferase (Luc) mRNA [1]): 4.49E+05; Total Flux Femur (luciferase (Luc) mRNA [3]; femur): 2.02E+04; Total Flux Liver (luciferase (Luc) mRNA [3]): 6.48E+04; Total Flux Lung (luciferase (Luc) mRNA [3]): 1.66E+04; Total Flux Spleen (luciferase (Luc) mRNA [3]): 1.32E+05; Cytokine induction IL-6 (IL-6, IP-10): 130.82; Cytokine induction IP-10 (IL-6, IP-10): 234.35; Total flux, 0.001 mpk Dose (luciferase (Luc) mRNA [5]; 0.001 mpk, Luc mRNA and H10 mRNA): 7.57E+04 p/s; Total flux, 0.01 mpk Dose (luciferase (Luc) mRNA [5]; 0.01 mpk, Luc mRNA and H10 mRNA): 8.09E+04 p/s |
